Test results: ChEMBL document CHEMBL1201862, “PubChem BioAssay data set” (2004)
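1) Cells in 96-well plates. 2) Compound, 48 h, 5 concentrations. 3) Linear interpolation between surrounding doses. 4) Unreached endpoint = highest concentration. GI50: concentration for 50% inhibition of growth.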 Activity calls are given as the source filed them. No stated cut-off is given here; in the data, active = GI50 up to about 1.1 µM and inactive = higher.

What was measured:
Assay in all cases: DTP human tumour cell line panel, 48 h
[1] = test system: SF-268
[2] = test system: MOLT-4
[3] = test system: SK-MEL-28
[4] = test system: RXF 393
[5] = test system: NCI/ADR-RES
[6] = test system: HL-60
[7] = test system: K562
[8] = test system: MDA-N
[9] = test system: OVCAR-8
[10] = test system: HOP-92
[11] = test system: MDA-MB-435
[12] = test system: OVCAR-4
[13] = test system: SK-MEL-5
[14] = test system: U-251
[15] = test system: NCI-H23
[16] = test system: SF-539
[17] = test system: SK-MEL-2
[18] = test system: Hs-578T
[19] = test system: COLO 205
[20] = test system: MDA-MB-231
[21] = test system: M14
[22] = test system: SR
[23] = test system: HT-29
[24] = test system: HCC 2998
[25] = test system: UACC-257
[26] = test system: DU-145
[27] = test system: T47D
[28] = test system: HOP-62
[29] = test system: UACC-62
[30] = test system: Malme-3M
[31] = test system: RPMI-8226
[32] = test system: SF-295
[33] = test system: ACHN
[34] = test system: SNB-19
[35] = test system: LOX IMVI
[36] = test system: SN12C
[37] = test system: HCT-15
[38] = test system: OVCAR-5
[39] = test system: BT-549
[40] = test system: PC-3
[41] = test system: SW-620
[42] = test system: A498
[43] = test system: A549
[44] = test system: CCRF-CEM
[45] = test system: TK-10
[46] = test system: MCF7
[47] = test system: NCI-H522
[48] = test system: HCT-116
[49] = test system: EKVX
[50] = test system: SNB-75
[51] = test system: KM12
[52] = test system: 786-0
[53] = test system: OVCAR-3
[54] = test system: SK-OV-3
[55] = test system: IGROV-1
[56] = test system: CAKI-1
[57] = test system: NCI-H460
[58] = test system: NCI-H226
[59] = test system: UO-31

`COC(=O)C1CC23C=CCN4CC(C2C)C2(c5ccccc5NC12)C43` (configuration not stated) was tested, and the GI50 [1] was > 100 µM (inactive), the GI50 [2] was > 100 µM (inactive) and the GI50 [3] was > 100 µM (inactive). The GI50 [4] was > 100 µM (inactive), the GI50 [5] was > 100 µM (inactive) and the GI50 [6] was 64 µM (inactive). For the same molecule, the GI50 [7] was > 100 µM (inactive), the GI50 [8] was > 100 µM (inactive) and the GI50 [9] was > 100 µM (inactive). For the same molecule, the GI50 [10] was > 100 µM (inactive), the GI50 [11] was > 100 µM (inactive) and the GI50 [12] was > 100 µM (inactive). For the same molecule, the GI50 [13] was > 100 µM (inactive), the GI50 [14] was > 100 µM (inactive) and the GI50 [15] was > 100 µM (inactive). The GI50 [16] was > 100 µM (inactive), the GI50 [17] was > 100 µM (inactive) and the GI50 [18] was > 100 µM (inactive). For the same molecule, the GI50 [19] was > 100 µM (inactive), the GI50 [20] was > 100 µM (inactive) and the GI50 [21] was > 100 µM (inactive). For the same molecule, the GI50 [22] was > 100 µM (inactive), the GI50 [23] was > 100 µM (inactive) and the GI50 [24] was > 100 µM (inactive). For the same molecule, the GI50 [25] was > 100 µM (inactive), the GI50 [26] was > 100 µM (inactive) and the GI50 [27] was > 100 µM (inactive). The GI50 [28] was > 100 µM (inactive), the GI50 [29] was > 100 µM (inactive) and the GI50 [30] was > 100 µM (inactive). For the same molecule, the GI50 [31] was > 100 µM (inactive), the GI50 [32] was > 100 µM (inactive) and the GI50 [33] was > 100 µM (inactive). For the same molecule, the GI50 [34] was > 100 µM (inactive), the GI50 [35] was > 100 µM (inactive) and the GI50 [36] was > 100 µM (inactive). The GI50 [37] was over 100 µM, the GI50 [38] was > 100 µM (inactive) and the GI50 [39] was > 100 µM (inactive). The GI50 [40] was > 100 µM (inactive), the GI50 [41] was > 100 µM (inactive) and the GI50 [42] was > 100 µM (inactive). For the same molecule, the GI50 [43] was > 100 µM (inactive), the GI50 [44] was > 100 µM (inactive) and the GI50 [45] was > 100 µM (inactive). The GI50 [46] was > 100 µM (inactive), the GI50 [47] was > 100 µM (inactive) and the GI50 [48] was > 100 µM (inactive). For the same molecule, the GI50 [49] was > 100 µM (inactive), the GI50 [50] was 87.7 µM (inactive) and the GI50 [51] was > 100 µM (inactive). The GI50 [52] was > 100 µM (inactive), the GI50 [53] was > 100 µM (inactive) and the GI50 [54] was > 100 µM (inactive). The GI50 [55] was > 100 µM (inactive), the GI50 [56] was > 100 µM (inactive) and the GI50 [57] was > 100 µM (inactive). The GI50 [58] was > 100 µM (inactive).

With `COc1ccc(C2C3=C(COC3=O)OC(C)(C)Oc3cc4c(cc32)OCO4)cc1OC` (configuration not stated) the GI50 [1] was 21.1 µM (inactive), the GI50 [2] was 34.8 µM (inactive) and the GI50 [3] was 53.2 µM (inactive). The GI50 [4] was 31.5 µM (inactive), the GI50 [5] was 19.9 µM (inactive) and the GI50 [6] was 29.2 µM (inactive). The GI50 [7] was 30.8 µM (inactive), the GI50 [8] was 19.8 µM (inactive) and the GI50 [9] was 46.1 µM (inactive). The GI50 [10] was 37.5 µM (inactive), the GI50 [11] was 17.3 µM (inactive) and the GI50 [12] was > 53.8 µM (inactive). The GI50 [13] was 30.3 µM (inactive), the GI50 [14] was 39.1 µM (inactive) and the GI50 [15] was 36.8 µM (inactive). The GI50 [16] was 29.1 µM (inactive), the GI50 [17] was 34.4 µM (inactive) and the GI50 [18] was 31.6 µM (inactive). For the same molecule, the GI50 [19] was 20.9 µM (inactive), the GI50 [20] was 33.8 µM (inactive) and the GI50 [21] was 28.2 µM (inactive). For the same molecule, the GI50 [22] was 29.2 µM (inactive), the GI50 [23] was 39.4 µM (inactive) and the GI50 [24] was 78 µM (inactive). The GI50 [25] was 39.4 µM (inactive), the GI50 [26] was 42.1 µM (inactive) and the GI50 [27] was 37.5 µM (inactive). The GI50 [28] was 63.5 µM (inactive), the GI50 [29] was 34 µM (inactive) and the GI50 [30] was 29.7 µM (inactive). The GI50 [31] was 41.6 µM (inactive), the GI50 [32] was 29 µM (inactive) and the GI50 [33] was 51.5 µM (inactive). The GI50 [34] was 44.4 µM (inactive), the GI50 [35] was 40.8 µM (inactive) and the GI50 [36] was 51.9 µM (inactive). The GI50 [37] was 38.5 µM, the GI50 [38] was > 77.8 µM (inactive) and the GI50 [39] was 32.3 µM (inactive). For the same molecule, the GI50 [40] was 28.1 µM (inactive), the GI50 [41] was 33.3 µM (inactive) and the GI50 [42] was 23.1 µM (inactive). The GI50 [43] was 36.8 µM (inactive), the GI50 [44] was 37.1 µM (inactive) and the GI50 [59] was 47.9 µM (inactive). The GI50 [45] was 50.1 µM (inactive), the GI50 [46] was 40.1 µM (inactive) and the GI50 [47] was 32.4 µM (inactive). For the same molecule, the GI50 [48] was 34.6 µM (inactive), the GI50 [49] was 28.5 µM (inactive) and the GI50 [50] was 13.2 µM (inactive). The GI50 [51] was 24 µM (inactive), the GI50 [52] was 41.9 µM (inactive) and the GI50 [53] was 33.2 µM (inactive). For the same molecule, the GI50 [54] was 50.5 µM (inactive), the GI50 [55] was 36.9 µM (inactive) and the GI50 [56] was 43.6 µM (inactive). For the same molecule, the GI50 [57] was 37.1 µM (inactive) and the GI50 [58] was > 78.7 µM (inactive).
